Source: ChEMBL document CHEMBL1201862, “PubChem BioAssay data set” (2004)
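Compound exposure: 48 hours, 5 concentrations, 96-well plates. GI50: concentration for 50% inhibition of growth.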 Calls of active or inactive are those of the source. Rule as the data show it: active = GI50 up to about 1.1 µM and inactive = higher.

Legend:
Test in all cases: growth of human tumour cells (NCI), 48 h
[1] = tested on: Hs-578T
[2] = tested on: NCI-H522
[3] = tested on: OVCAR-5
[4] = tested on: CCRF-CEM
[5] = tested on: M14
[6] = tested on: MOLT-4
[7] = tested on: NCI-H226
[8] = tested on: OVCAR-3
[9] = tested on: EKVX
[10] = tested on: A549
[11] = tested on: PC-3
[12] = tested on: OVCAR-8
[13] = tested on: T47D
[14] = tested on: SK-MEL-2
[15] = tested on: SN12C
[16] = tested on: ACHN
[17] = tested on: COLO 205
[18] = tested on: HCT-15
[19] = tested on: CAKI-1
[20] = tested on: UACC-257
[21] = tested on: K562
[22] = tested on: HT-29
[23] = tested on: UO-31
[24] = tested on: KM12
[25] = tested on: MDA-N
[26] = tested on: SF-295
[27] = tested on: HL-60
[28] = tested on: MDA-MB-231
[29] = tested on: SR
[30] = tested on: HCC 2998
[31] = tested on: A498
[32] = tested on: RPMI-8226
[33] = tested on: LOX IMVI
[34] = tested on: SK-MEL-5
[35] = tested on: U-251
[36] = tested on: 786-0
[37] = tested on: MCF7
[38] = tested on: OVCAR-4
[39] = tested on: MDA-MB-435
[40] = tested on: UACC-62
[41] = tested on: SK-OV-3
[42] = tested on: IGROV-1
[43] = tested on: HCT-116
[44] = tested on: NCI/ADR-RES
[45] = tested on: SNB-75
[46] = tested on: SNB-19
[47] = tested on: RXF 393
[48] = tested on: TK-10
[49] = tested on: SK-MEL-28
[50] = tested on: DU-145
[51] = tested on: NCI-H460
[52] = tested on: BT-549
[53] = tested on: SF-268
[54] = tested on: HOP-62
[55] = tested on: NCI-H23
[56] = tested on: SW-620
[57] = tested on: Malme-3M
[58] = tested on: SF-539

For `O=C1N=C(c2ccccc2)OC1C(=O)c1ccccc1` (stereo unspecified), the GI50 [1] was > 100 µM (inactive), the GI50 [2] was > 100 µM (inactive) and the GI50 [3] was > 100 µM (inactive). For the same compound, the GI50 [4] was > 100 µM (inactive), the GI50 [5] was > 100 µM (inactive) and the GI50 [6] was > 100 µM (inactive). For the same compound, the GI50 [7] was > 100 µM (inactive), the GI50 [8] was > 100 µM (inactive) and the GI50 [9] was > 100 µM (inactive). For the same compound, the GI50 [10] was > 100 µM (inactive), the GI50 [11] was > 100 µM (inactive) and the GI50 [12] was > 100 µM (inactive). The GI50 [13] was > 100 µM (inactive), the GI50 [14] was > 100 µM (inactive) and the GI50 [15] was > 100 µM (inactive). For the same compound, the GI50 [16] was > 100 µM (inactive), the GI50 [17] was > 100 µM (inactive) and the GI50 [18] was over 100 µM. The GI50 [19] was > 100 µM (inactive), the GI50 [20] was > 100 µM (inactive) and the GI50 [21] was > 100 µM (inactive). The GI50 [22] was > 100 µM (inactive), the GI50 [23] was > 100 µM (inactive) and the GI50 [24] was > 100 µM (inactive). For the same compound, the GI50 [25] was > 100 µM (inactive), the GI50 [26] was > 100 µM (inactive) and the GI50 [27] was > 100 µM (inactive). For the same compound, the GI50 [28] was > 100 µM (inactive), the GI50 [29] was > 100 µM (inactive) and the GI50 [30] was > 100 µM (inactive). The GI50 [31] was > 100 µM (inactive), the GI50 [32] was > 100 µM (inactive) and the GI50 [33] was > 100 µM (inactive). For the same compound, the GI50 [34] was > 100 µM (inactive), the GI50 [35] was > 100 µM (inactive) and the GI50 [36] was > 100 µM (inactive). For the same compound, the GI50 [37] was > 100 µM (inactive), the GI50 [38] was > 100 µM (inactive) and the GI50 [39] was > 100 µM (inactive). The GI50 [40] was > 100 µM (inactive), the GI50 [41] was > 100 µM (inactive) and the GI50 [42] was 46.5 µM (inactive). The GI50 [43] was > 100 µM (inactive), the GI50 [44] was > 100 µM (inactive) and the GI50 [45] was > 100 µM (inactive). For the same compound, the GI50 [46] was > 100 µM (inactive), the GI50 [47] was > 100 µM (inactive) and the GI50 [48] was > 100 µM (inactive). For the same compound, the GI50 [49] was > 100 µM (inactive), the GI50 [50] was > 100 µM (inactive) and the GI50 [51] was > 100 µM (inactive). For the same compound, the GI50 [52] was > 100 µM (inactive), the GI50 [53] was > 100 µM (inactive) and the GI50 [54] was > 100 µM (inactive). The GI50 [55] was > 100 µM (inactive) and the GI50 [56] was > 100 µM (inactive).
In the case of `NCCN/C(=N\c1ccccc1)Nc1ccccc1`, the GI50 [1] is reported as > 100 µM (inactive), the GI50 [2] is reported as 68.4 µM (inactive) and the GI50 [4] is reported as > 100 µM (inactive). For the same compound, the GI50 [5] was > 100 µM (inactive), the GI50 [6] was > 100 µM (inactive) and the GI50 [7] was > 100 µM (inactive). The GI50 [8] was > 100 µM (inactive), the GI50 [9] was > 100 µM (inactive) and the GI50 [10] was > 100 µM (inactive). For the same compound, the GI50 [11] was 55.6 µM (inactive), the GI50 [12] was > 100 µM (inactive) and the GI50 [13] was > 10 µM (inactive). The GI50 [14] was > 100 µM (inactive), the GI50 [15] was > 100 µM (inactive) and the GI50 [17] was > 100 µM (inactive). For the same compound, the GI50 [18] was over 100 µM, the GI50 [19] was > 100 µM (inactive) and the GI50 [20] was > 100 µM (inactive). For the same compound, the GI50 [21] was > 100 µM (inactive), the GI50 [22] was > 100 µM (inactive) and the GI50 [23] was > 100 µM (inactive). For the same compound, the GI50 [24] was > 100 µM (inactive), the GI50 [25] was > 100 µM (inactive) and the GI50 [26] was > 100 µM (inactive). For the same compound, the GI50 [27] was > 100 µM (inactive), the GI50 [28] was > 100 µM (inactive) and the GI50 [29] was > 100 µM (inactive). The GI50 [30] was > 100 µM (inactive), the GI50 [32] was > 100 µM (inactive) and the GI50 [33] was 83.8 µM (inactive). For the same compound, the GI50 [34] was 99.5 µM (inactive), the GI50 [35] was > 100 µM (inactive) and the GI50 [36] was > 100 µM (inactive). For the same compound, the GI50 [37] was > 100 µM (inactive), the GI50 [38] was > 100 µM (inactive) and the GI50 [39] was > 100 µM (inactive). For the same compound, the GI50 [40] was > 100 µM (inactive), the GI50 [41] was > 100 µM (inactive) and the GI50 [42] was > 100 µM (inactive). The GI50 [43] was 94.2 µM (inactive), the GI50 [44] was > 100 µM (inactive) and the GI50 [45] was 72.6 µM (inactive). For the same compound, the GI50 [57] was > 100 µM (inactive), the GI50 [46] was > 100 µM (inactive) and the GI50 [47] was 24.3 µM (inactive). The GI50 [58] was 70.8 µM (inactive), the GI50 [48] was > 100 µM (inactive) and the GI50 [49] was > 100 µM (inactive). The GI50 [50] was > 100 µM (inactive), the GI50 [51] was > 100 µM (inactive) and the GI50 [52] was > 100 µM (inactive). The GI50 [53] was > 100 µM (inactive), the GI50 [54] was > 100 µM (inactive) and the GI50 [55] was > 100 µM (inactive). The GI50 [56] was > 100 µM (inactive).
